Experiments:
HDAC2 = HDAC2 (Homo sapiens (Human), UniProt Q92769); assay: HDAC inhibition assay; format: biochemical
Excerpt: (§1) All histone deacetylases were purchased from BPS Bioscience. […] All the other reagents were purchased from Sigma-Aldrich.

HDAC3 = HDAC3 (Homo sapiens (Human), UniProt O15379); assay: HDAC inhibition assay; conditions: read-out: IC50 HDAC3
Description: (§2) All histone deacetylases were purchased from BPS Bioscience. […] All the other reagents were purchased from Sigma-Aldrich. Caliper EZ reader II system was used to collect all data. […] Purified HDACs were incubated with 2 μM carboxyfluorescein (FAM)-labeled acetylated or trifluoroacetylated peptide substrate (Broad Substrate A and B respectively) and test compound for 60 minutes at room temperature, in HDAC assay buffer that contained 50 mM HEPES (pH 7.4), 100 mM KCl, 0.01% BSA and 0.001% Tween-20. […] Substrate and product were separated electrophoretically and fluorescence intensity in the substrate and product peaks was determined and analyzed by Labchip EZ Reader. The reactions were performed in duplicate for each sample. IC50 values were automatically calculated by Origin 8 using 4 Parameter Logistic Model. The percent inhibition was plotted against the compound concentration, and the IC50 value was determined from the logistic dose-response curve fitting by Origin 8.0 software.

HDAC1 = HDAC1 (Homo sapiens (Human), UniProt Q13547); assay: HDAC inhibition assay; conditions: read-out: IC50 HDAC1
Description: as §2

HDAC9 = HDAC9 (Homo sapiens (Human), UniProt Q9UKV0); assay: HDAC inhibition assay; conditions: read-out: IC50 HDAC9
Description: as §2

HDAC6 = HDAC6 (Homo sapiens (Human), UniProt Q9UBN7); assay: HDAC inhibition assay; format: biochemical
Sequence of HDAC6 (Q9UBN7 whole entry): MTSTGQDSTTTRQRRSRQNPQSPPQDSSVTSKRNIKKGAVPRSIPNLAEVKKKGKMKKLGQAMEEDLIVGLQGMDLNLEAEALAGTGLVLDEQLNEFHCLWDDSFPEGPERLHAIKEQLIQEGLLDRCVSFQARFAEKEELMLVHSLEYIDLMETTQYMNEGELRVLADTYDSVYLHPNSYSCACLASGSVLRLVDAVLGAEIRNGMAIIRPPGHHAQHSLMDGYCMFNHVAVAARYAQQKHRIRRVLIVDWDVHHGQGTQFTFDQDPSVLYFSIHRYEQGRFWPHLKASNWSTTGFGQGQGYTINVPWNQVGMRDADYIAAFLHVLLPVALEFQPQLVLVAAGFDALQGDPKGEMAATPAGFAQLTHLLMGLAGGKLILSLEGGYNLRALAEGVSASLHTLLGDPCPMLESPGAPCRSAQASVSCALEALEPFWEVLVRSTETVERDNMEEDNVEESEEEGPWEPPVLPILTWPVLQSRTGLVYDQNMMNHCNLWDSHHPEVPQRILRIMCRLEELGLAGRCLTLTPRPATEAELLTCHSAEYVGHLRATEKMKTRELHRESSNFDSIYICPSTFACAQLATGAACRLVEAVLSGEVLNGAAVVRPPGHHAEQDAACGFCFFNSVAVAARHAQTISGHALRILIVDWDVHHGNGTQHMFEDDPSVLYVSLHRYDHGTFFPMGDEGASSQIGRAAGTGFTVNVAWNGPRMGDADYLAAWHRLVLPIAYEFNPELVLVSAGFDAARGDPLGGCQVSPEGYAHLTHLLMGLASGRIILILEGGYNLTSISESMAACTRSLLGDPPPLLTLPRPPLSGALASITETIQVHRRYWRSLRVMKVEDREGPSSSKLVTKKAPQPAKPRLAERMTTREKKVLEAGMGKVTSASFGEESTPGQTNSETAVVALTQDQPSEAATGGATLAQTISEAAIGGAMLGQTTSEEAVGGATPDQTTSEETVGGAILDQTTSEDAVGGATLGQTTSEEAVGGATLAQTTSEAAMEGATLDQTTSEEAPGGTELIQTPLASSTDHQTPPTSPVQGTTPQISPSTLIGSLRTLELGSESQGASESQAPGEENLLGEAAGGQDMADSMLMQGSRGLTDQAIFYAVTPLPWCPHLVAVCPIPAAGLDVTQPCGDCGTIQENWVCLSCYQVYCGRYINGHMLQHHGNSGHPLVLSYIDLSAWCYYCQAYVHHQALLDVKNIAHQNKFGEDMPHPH
Excerpt: as §1

HDAC8 = HDAC8 (Homo sapiens (Human), UniProt Q9BY41); assay: HDAC inhibition assay; format: biochemical
Excerpt: as §1

HDAC7 = HDAC7 (Homo sapiens (Human), UniProt Q8WUI4); assay: HDAC inhibition assay; conditions: read-out: IC50 HDAC7
Sequence of HDAC7 (Q8WUI4 whole entry): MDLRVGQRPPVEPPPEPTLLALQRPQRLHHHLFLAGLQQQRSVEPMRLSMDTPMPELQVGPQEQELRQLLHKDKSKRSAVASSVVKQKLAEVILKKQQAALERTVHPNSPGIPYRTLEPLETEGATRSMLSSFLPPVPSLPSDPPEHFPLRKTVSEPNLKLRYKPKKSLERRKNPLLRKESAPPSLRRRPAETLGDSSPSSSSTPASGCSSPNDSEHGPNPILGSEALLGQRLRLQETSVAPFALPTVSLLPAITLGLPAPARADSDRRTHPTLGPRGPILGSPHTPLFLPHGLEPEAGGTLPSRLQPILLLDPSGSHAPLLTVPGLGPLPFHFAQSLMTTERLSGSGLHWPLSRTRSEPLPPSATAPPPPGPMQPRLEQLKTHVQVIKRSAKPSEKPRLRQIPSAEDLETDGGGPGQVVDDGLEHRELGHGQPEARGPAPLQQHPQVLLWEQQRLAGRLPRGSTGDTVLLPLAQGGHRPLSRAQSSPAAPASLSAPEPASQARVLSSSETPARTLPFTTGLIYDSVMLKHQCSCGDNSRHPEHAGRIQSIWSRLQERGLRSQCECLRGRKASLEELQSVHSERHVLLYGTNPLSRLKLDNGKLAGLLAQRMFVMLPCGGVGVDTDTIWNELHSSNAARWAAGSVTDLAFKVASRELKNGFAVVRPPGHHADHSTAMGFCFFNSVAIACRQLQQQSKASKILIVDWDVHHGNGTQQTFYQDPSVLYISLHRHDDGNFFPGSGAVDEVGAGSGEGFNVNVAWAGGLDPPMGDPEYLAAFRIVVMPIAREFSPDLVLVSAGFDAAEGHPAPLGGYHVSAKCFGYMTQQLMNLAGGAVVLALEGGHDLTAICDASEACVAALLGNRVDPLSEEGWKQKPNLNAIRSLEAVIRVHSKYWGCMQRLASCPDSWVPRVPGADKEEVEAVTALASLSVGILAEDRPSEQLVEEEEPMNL
Description: as §2

HDAC4 = HDAC4 (Homo sapiens (Human), UniProt P56524); assay: HDAC inhibition assay; conditions: read-out: IC50 HDAC4
Description: as §2

HDAC5 = HDAC5 (Homo sapiens (Human), UniProt Q9UQL6); assay: HDAC inhibition assay; conditions: read-out: IC50 HDAC5
Sequence of HDAC5 (Q9UQL6 whole entry): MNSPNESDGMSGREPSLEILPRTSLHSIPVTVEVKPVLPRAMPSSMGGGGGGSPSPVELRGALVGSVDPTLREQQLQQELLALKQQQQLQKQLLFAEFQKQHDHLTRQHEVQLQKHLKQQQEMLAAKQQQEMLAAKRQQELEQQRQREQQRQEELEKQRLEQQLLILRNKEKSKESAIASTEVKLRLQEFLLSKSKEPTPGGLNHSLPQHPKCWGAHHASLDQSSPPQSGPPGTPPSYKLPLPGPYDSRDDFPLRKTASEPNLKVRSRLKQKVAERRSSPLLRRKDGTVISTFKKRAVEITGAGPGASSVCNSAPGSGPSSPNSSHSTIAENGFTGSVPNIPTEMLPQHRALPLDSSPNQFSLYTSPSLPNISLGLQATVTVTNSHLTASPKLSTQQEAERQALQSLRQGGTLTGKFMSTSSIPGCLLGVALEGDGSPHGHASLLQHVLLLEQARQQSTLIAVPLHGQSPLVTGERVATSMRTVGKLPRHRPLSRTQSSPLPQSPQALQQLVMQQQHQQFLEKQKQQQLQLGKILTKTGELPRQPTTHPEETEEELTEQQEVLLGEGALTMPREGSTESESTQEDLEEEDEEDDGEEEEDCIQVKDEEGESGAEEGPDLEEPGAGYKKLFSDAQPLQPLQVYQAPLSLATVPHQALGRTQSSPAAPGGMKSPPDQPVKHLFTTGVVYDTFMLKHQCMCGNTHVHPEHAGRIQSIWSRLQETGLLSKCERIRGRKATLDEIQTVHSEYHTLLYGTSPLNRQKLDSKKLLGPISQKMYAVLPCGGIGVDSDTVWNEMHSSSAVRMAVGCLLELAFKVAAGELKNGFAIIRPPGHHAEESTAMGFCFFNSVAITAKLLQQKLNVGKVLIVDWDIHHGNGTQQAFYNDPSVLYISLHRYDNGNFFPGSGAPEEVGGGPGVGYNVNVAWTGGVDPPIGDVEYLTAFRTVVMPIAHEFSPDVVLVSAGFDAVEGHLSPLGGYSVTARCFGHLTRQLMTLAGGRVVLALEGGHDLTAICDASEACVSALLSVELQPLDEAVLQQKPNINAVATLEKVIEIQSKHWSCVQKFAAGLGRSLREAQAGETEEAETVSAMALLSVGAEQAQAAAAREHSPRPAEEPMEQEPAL
Description: as §2

histone deacetylases = assay: Baboon PET/MR imaging with [11C]CN133; format: in vivo, baboon (Papio anubis); conditions: for VT (Ichese MAI), CN147 blocked / VT (Logan Plot), CN147 blocked: [11C]CN133 VT after CN147 0.5 mg/kg intravenous; for VT (Ichese MAI), % Difference / VT (Logan Plot), % Difference: baseline vs CN147 blocked
Description: A female Papio Anubis baboon, deprived of food for 12 hours prior to the study, was administered intramuscular ketamine (10 mg/kg) and intubated. For maintenance of anesthesia throughout the study, the baboon was provided 1%-4% isoflurane (Forane) in a mixture of medical oxygen and nitrogen. The baboon was catheterized antecubitally for radiotracer injection and a radial arterial line was placed for metabolite analysis. MR-PET images were acquired in a BiographmMR scanner (Siemens, Munich, Germany), and PET compatible 8-channel coil arrays for non-human primate brain imaging with a PET resolution of 5 mm and field of view of 59.4 cm and 25.8 cm (transaxial and axial, respectively). Dynamic PET image acquisition was initiated followed by administration of the radiotracer in a homogenous solution of 10% ethanol and 90% isotonic saline. An […] sequence began after 30 minutes of the baseline scan for anatomic coregistration. […] Both scans were carried out in the same animal on the same day, separated by 2.5 hours. In both scans, 4-5 mCi of [^11C]CN133 was administered to the baboon. Dynamic data from the PET scans were recorded in list mode and corrected for attenuation. Baboon data were reconstructed using a 3D-OSEM method resulting in a full width at half-maximum resolution of 4 mm.
Volumes of interest (VOIs) were drawn manually as spheres in brain regions guided by high resolution MR structural images and summed PET data, with a radius no less than 4 mm. A common VOI mask was applied to both baboon scans. Time-activity curves (TACs) were exported in terms of decay corrected activity per unit volume at specified time points with gradually increasing intervals. The TACs were expressed as percent injected dose per unit volume for analysis.
Arterial samples collected during imaging from the baboon were centrifuged to obtain plasma, which was then removed and placed in an automated gamma counter that was calibrated to the PET scanner. Metabolite analysis was conducted on a custom automated robot fitted with Phenomenex SPE Strata-X 500 mg solid phase extraction cartridges that were primed with ethanol (2 mL) and deionized water (20 mL). Protein precipitation was achieved by addition of plasma (300 μL) to acetonitrile (300 μL), which was centrifuged for 1 minute to obtain protein-free plasma (PFP). 300 μL of PFP/acetonitrile solution was diluted into deionized water (3 mL), loaded onto the C18 cartridge, and removed of polar metabolites with 100% water. Next, a series of extractions were performed using water and acetonitrile in quantities: 95:5, 90:10, 85:15, 80:20, 70:30, 60:40, 30:70 and 100% acetonitrile at a volume of 4 mL. A control experiment was performed before metabolite analysis to determine the retention of the parent compound by injection of a small amount of [^11C]CN133 onto a test series of extraction cartridges. Each sample was counted in a WIZARD2 Automatic Gamma Counter to determine the presence of radiolabeled metabolites.
CN147 blocks ˜40% of [^11C]CN133 binding in NHP whole brain and in cerebellum. Plasma-normalized data were evaluated by volume of interest analysis (VOI) at the whole brain level and at level of the cerebellum. VOI data were then applied to distribution volume (VT) data analysis by two graphical methods using PMOD software, tabulated in Tables A and B below. Logan Plot and Ichese MAI methods were clarified from previous NHP imaging analyses to provide an accurate VT estimate (+/− standard error) from data beginning 35 min after injection of radiotracer (t*=35 min) until the end of the scan (t=80min).

Sequence of HDAC3 (O15379 whole entry): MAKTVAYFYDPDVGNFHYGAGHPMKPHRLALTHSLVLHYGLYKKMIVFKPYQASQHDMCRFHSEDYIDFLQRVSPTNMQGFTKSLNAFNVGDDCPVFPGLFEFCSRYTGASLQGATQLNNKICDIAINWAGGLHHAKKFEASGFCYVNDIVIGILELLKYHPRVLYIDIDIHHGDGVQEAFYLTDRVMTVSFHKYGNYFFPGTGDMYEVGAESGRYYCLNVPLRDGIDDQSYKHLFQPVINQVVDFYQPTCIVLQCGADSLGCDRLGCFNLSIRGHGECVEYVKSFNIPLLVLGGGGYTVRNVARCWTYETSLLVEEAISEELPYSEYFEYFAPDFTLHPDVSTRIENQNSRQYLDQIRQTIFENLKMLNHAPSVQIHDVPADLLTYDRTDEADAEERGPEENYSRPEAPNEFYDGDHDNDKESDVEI
Sequence of HDAC3 (Q9Y618 395-489 partner): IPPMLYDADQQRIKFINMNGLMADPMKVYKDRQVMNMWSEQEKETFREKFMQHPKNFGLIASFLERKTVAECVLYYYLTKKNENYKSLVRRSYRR
Sequence of HDAC2 (Q92769 whole entry): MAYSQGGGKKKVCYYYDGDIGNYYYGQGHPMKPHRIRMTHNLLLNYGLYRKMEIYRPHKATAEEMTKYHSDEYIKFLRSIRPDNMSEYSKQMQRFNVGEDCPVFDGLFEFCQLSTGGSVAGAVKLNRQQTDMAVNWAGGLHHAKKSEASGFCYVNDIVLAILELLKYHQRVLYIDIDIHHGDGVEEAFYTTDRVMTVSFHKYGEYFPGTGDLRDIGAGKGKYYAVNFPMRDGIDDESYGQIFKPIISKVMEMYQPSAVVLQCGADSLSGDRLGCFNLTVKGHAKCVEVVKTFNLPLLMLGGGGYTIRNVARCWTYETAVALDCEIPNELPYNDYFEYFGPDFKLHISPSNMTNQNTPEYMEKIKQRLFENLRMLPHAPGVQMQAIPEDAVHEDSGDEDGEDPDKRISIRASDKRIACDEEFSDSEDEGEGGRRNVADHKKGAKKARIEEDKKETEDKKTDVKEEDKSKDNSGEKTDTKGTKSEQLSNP
Sequence of HDAC1 (Q13547 whole entry): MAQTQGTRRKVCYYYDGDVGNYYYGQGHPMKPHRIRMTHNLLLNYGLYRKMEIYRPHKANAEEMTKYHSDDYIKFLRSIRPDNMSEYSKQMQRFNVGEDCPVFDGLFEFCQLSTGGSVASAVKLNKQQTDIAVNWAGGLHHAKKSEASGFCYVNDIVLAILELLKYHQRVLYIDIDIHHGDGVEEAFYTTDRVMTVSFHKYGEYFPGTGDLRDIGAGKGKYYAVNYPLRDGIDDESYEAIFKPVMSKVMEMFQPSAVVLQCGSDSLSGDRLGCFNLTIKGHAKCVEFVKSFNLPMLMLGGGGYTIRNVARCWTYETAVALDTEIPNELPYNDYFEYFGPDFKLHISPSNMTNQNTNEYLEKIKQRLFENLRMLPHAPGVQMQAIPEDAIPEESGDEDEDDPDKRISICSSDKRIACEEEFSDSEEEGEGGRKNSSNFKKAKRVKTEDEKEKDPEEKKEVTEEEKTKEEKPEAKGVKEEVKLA

Row | Compound | IC50 (HDAC2) | IC50 (HDAC3) | IC50 (HDAC1) | IC50 (HDAC9) | IC50 (HDAC6) | IC50 (HDAC8) | IC50 (HDAC7) | IC50 (HDAC4) | IC50 (HDAC5) | VT (Ichese MAI), CN147 blocked (histone deacetylases; Cerebellum VOI) | VT (Logan Plot), CN147 blocked (histone deacetylases; Cerebellum VOI) | VT (Ichese MAI), % Difference (histone deacetylases; Cerebellum VOI) | VT (Logan Plot), % Difference (histone deacetylases; Cerebellum VOI) | blocking of [11C]CN133 binding (histone deacetylases; NHP whole brain and cerebellum) | VT (Ichese MAI), CN147 blocked (histone deacetylases; Whole Brain VOI) | VT (Logan Plot), CN147 blocked (histone deacetylases; Whole Brain VOI) | VT (Ichese MAI), % Difference (histone deacetylases; Whole Brain VOI) | VT (Logan Plot), % Difference (histone deacetylases; Whole Brain VOI)
1 | CNc1ccc(C(=O)NCCCCC(=O)NO)cc1 [CN51] | 477 nM | 84.5 nM | 106 nM |  |  |  |  |  |  |  |  |  |  |  |  |  |  | 
2 | CN(C)c1ccc(C(=O)NCCCCCCC(=O)NO)cc1 [CN52] | 20.7 nM | 4.3 nM | 7.3 nM |  |  |  |  |  |  |  |  |  |  |  |  |  |  | 
3 | CNc1ccc(C(=O)NCCCCCCC(=O)NO)cc1 [CN53] | 11.9 nM | 5.7 nM | 6.1 nM |  |  |  |  |  |  |  |  |  |  |  |  |  |  | 
4 | CN(C)CCOc1ccc2c(c1)C(c1ccc(C(=O)NO)cc1)=Nc1ccccc1O2 [CN56] | 160 nM | 97.8 nM | 270 nM |  |  |  |  |  |  |  |  |  |  |  |  |  |  | 
5 | O=C(/C=C/c1ccccc1)NO [CN86] | 470 nM | 151 nM | 133 nM | > 50000 nM | 21.7 nM | 725 nM | > 20000 nM | > 10000 nM | > 10000 nM |  |  |  |  |  |  |  |  | 
6 | COc1ccc(/C=C/C(=O)NO)cc1 [CN87] | 833 nM | 238 nM | 301 nM | > 70000 nM | 23.2 nM | 2570 nM | > 70000 nM | > 70000 nM | > 10000 nM |  |  |  |  |  |  |  |  | 
7 | CN(c1ccccc1)S(=O)(=O)c1cccc(/C=C/C(=O)NO)c1 [CN88] | 52.9 nM | 13.7 nM | 17.8 nM | > 10000 nM | 4.1 nM | 925 nM | 2020 nM | 3830 nM | 7950 nM |  |  |  |  |  |  |  |  | 
8 | CN(CCc1ccccc1)S(=O)(=O)c1cccc(/C=C/C(=O)NO)c1 [CN89] | 32 nM | 3.4 nM | 5 nM | > 10000 nM | 5 nM | 150 nM |  | 500 nM | > 10000 nM |  |  |  |  |  |  |  |  | 
9 | CCCCc1nc2cc(/C=C/C(=O)NO)ccc2n1CCN(C)C [CN101] | 18 nM | 1.9 nM | 4.7 nM | > 50000 nM | 8.4 nM | 2370 nM | > 40000 nM | > 10000 nM | > 10000 nM |  |  |  |  |  |  |  |  | 
10 | Cn1cc(CCNCc2ccc(/C=C/C(=O)NO)cc2)c2ccccc21 [CN107] | 1.2 nM | 0.4 nM | 0.2 nM | 4850 nM | 1.6 nM | 1040 nM | 2040 nM | 655 nM | 99 nM |  |  |  |  |  |  |  |  | 
11 | COc1ccc2c(c1)C(=O)N(CCCCCC(=O)NO)c1ccccc1S2 [CN112] | 4 nM | 1.1 nM | 1.2 nM | 1470 nM | 2.3 nM | > 70000 nM |  | > 10000 nM | > 20000 nM |  |  |  |  |  |  |  |  | 
12 | COc1ccc2c(c1)C(=O)N(CCCCCC(=O)NO)c1ccccc1S2(=O)=O [CN113] | 2 nM | 1.3 nM | 0.8 nM | > 20000 nM | 1.2 nM | 2840 nM | 9650 nM | 9450 nM | 3850 nM |  |  |  |  |  |  |  |  | 
13 | O=C(/C=C/c1ccc(CNCC23CC4CC(CC(C4)C2)C3)cc1)NO [CN132] | 7.8 nM | 1.2 nM | 0.95 nM | > 10000 nM | 1.7 nM | > 10000 nM | > 20000 nM |  |  |  |  |  |  |  |  |  |  | 
14 | CN(Cc1ccc2c(c1)CCC(C(=O)NO)=C2)CC12CC3CC(CC(C3)C1)C2 [CN141] |  | 97.9 nM | 55.8 nM | > 10000 nM | 14.4 nM | 2400 nM | 5510 nM | 389 nM | 207 nM |  |  |  |  |  |  |  |  | 
15 | O=C(/C=C/c1ccc(CNCC2CCCCC2)cc1)NO [CN143] |  | 4.3 nM | 1.8 nM | > 10000 nM | 9.7 nM | 9600 nM | > 20000 nM | 927 nM | 196 nM |  |  |  |  |  |  |  |  | 
16 | CN(C)Cc1ccc(/C=C/C(=O)NO)cc1 [CN145] |  | 9240 nM | > 50000 nM |  | 6820 nM |  |  |  | > 70000 nM |  |  |  |  |  |  |  |  | 
17 | O=C(/C=C/c1ccc(CN(CCF)CC23CC4CC(CC(C4)C2)C3)cc1)NO [CN146] |  | 470 nM | 221 nM | > 40000 nM | 308 nM | > 30000 nM | > 30000 nM | > 10000 nM | 5350 nM |  |  |  |  |  |  |  |  | 
18 | CN(Cc1ccc(/C=C/C(=O)Nc2ccccc2N)cc1)CC12CC3CC(CC(C3)C1)C2 [CN147] |  |  |  |  |  |  |  |  |  | 11.68 ± 8.42 | 11.59 ± 3.37 | 39.95% | 39.89% | ~40% | 8.92 ± 9.26 | 8.85 ± 3.06 | 39.11% | 38.80%
19 | O=C(/C=C/c1ccc(CNCC23CC4CC(CC(C4)C2)C3)c(F)c1)NO [CN148] | 6.4 nM | 0.5 nM | 0.78 nM | > 50000 nM | 9.5 nM | 4900 nM | > 50000 nM | > 70000 nM | 4310 nM |  |  |  |  |  |  |  |  | 
20 | CN(Cc1ccc(/C=C/C(=O)NO)cc1F)CC12CC3CC(CC(C3)C1)C2 [CN149] |  | 0.76 nM | 0.78 nM | > 50000 nM | 11.7 nM | > 50000 nM | > 50000 nM | 20300 nM | 4750 nM |  |  |  |  |  |  |  |  | 
21 | CCCCN(Cc1ccc(C(=O)NO)cc1)C(=O)Nc1ccccc1OC [CN165] | 307 nM | 143 nM | 96.7 nM |  | 2.13 nM | 493 nM |  |  |  |  |  |  |  |  |  |  |  | 
22 | O=C(/C=C/c1ccc(CNCC2CCCCC2)c(F)c1)NO [CN166] | 14.2 nM | 0.54 nM | 1.64 nM |  | 11.7 nM | 725 nM |  |  |  |  |  |  |  |  |  |  |  | 
23 | CN(Cc1ccc(/C=C/C(=O)NO)cc1F)CC1CCCCC1 [CN167] | 40 nM | 4.83 nM | 5.43 nM |  | 18.7 nM | 1810 nM |  |  |  |  |  |  |  |  |  |  |  | 

Source: patent publication US10188756B2, “Imaging histone deacetylases with a radiotracer using positron emission tomography” (THE GENERAL HOSPITAL CORPORATION, priority 2013, dated 2019)
